Results taken from US20260098019A1, “SYNTHESIS OF NSAID CONJUGATES AS ANTI-INFLAMMATORY AGENTS USING THE MOLECULAR HYBRIDIZATION” (AUGUSTA UNIVERSITY RESEARCH INSTITUTE, INC., priority 2022, published 2026).
Marks after values point to notes of the source that are not given here.

Assays:
[1] = system: acetic acid-induced writhing; assay: acetic acid-induced writhing test (peripheral analgesic); format: in vivo, albino mice; details: for 1/(observed property): 1/(% inhibition) peripheral analgesic; for Observed property: % inhibition/protection peripheral analgesic; for % Inhibition/protection: vs control; for % Inhibition/protection / Writing reflex ± SE: 10 mg/kg indomethacin mol equivalent i.p.; for Potency: % inhibition/protection compared to indomethacin; for Writing reflex ± SE: number of writhing counted for 30 min
Description: Peripheral analgesic activity was measured by the standard acetic acid-induced writhing test in mice. […] One hour after the i.p. administration, each mouse was injected with 0.1 ml of 1% acetic acid solution i.p. The control group animals were given sterile/distilled water with few drops of Tween 80. Starting 5 min after the acetic acid injection, the number of muscular contractions in each mouse was counted for 30 min. A significant reduction in the number of writhing by a conjugate compared with control animals was considered as a positive analgesic response. Percentage protection was calculated according to equ. (3), where n is the average number of writhing in the control group and n′ is the average number of writhing in the treated group. The % potency was calculated by equ. (4) (Table 2).

gastric mucosa = assay: ulcerogenic liability; details: for ulcers or erosions to the gastric / ulcerogenic liability (in words): mice; for ulcers or erosions to the gastric / ulcerogenic liability (in words) / % Incidence of ulcer divided by 10 / Average of ulcer number / Average severity of ulcer / Number of animals with ulcer: oral; for % Incidence of ulcer divided by 10 / Average of ulcer number / Average severity of ulcer / Number of animals with ulcer: three successive days, 10 mg/kg indomethacin mol equivalent; for Number of animals with ulcer: 6 animals; for Ulcer index: sum of the three values
Description: The ulcerogenic liability of conjugates was determined in albino mice following a standard method. Animals of either sex (pregnant females were excluded) weighing 20-25 g were divided into 8 groups of 6 animals each. The animals fasted 18 h before drug administration. […] The control group animals were given water with a few drops of Tween 80. The animals were sacrificed by cervical dislocation and the stomach was removed, opened along the greater curvature, and rinsed with saline. The gastric mucosa was examined with a magnifying lens (10×) for the presence of lesions and erosions. The ulcer index was calculated (Table 4) and the degree of ulcerogenic effect was expressed in terms of: (1) the percentage incidence of ulcers divided by 10; (2) average number of ulcers per stomach; and (3) average severity of ulcers. The ulcer index is the value that resulted from the sum of the above three values.

hot plate latency = assay: hot plate test (central analgesic); format: in vivo, albino mice; details: for Observed property: % Protection central analgesic (120 min); for Latency period ± SE: 10 mg/kg indomethacin mol equivalent i.p., cutoff 15 seconds; for % Protection: vs control; for Potency: at 120 min. compared to indomethacin
Description: An in vivo standard hot plate test was performed. […] The control group animals were given sterile/distilled water with few drops of Tween 80. The maximum cutoff time was 15 seconds to prevent tissue damage. Response latencies were measured at 30, 60, 90 and 120 inns. The % protection was calculated by equ. (5), where, Ti, To are the latency time mean of the tested compound and control group respectively (Table 3).

COX-1 = COX-1 (UniProt P05979); format: biochemical, human; details: ± SD
Description: (§1) Rev. […] Thromb. Vasc. […] Rev. […] Rev. […] Rev. Oncol. Hematol. […] Curr. Pharm. Des. […] Luong, et al., Nat. Struct. […] A. and Marnett, L. J., Chem. Rev. […] Drug Discov. […] Biomol.

COX-2 = target: T1, COX-2 (Homo sapiens, UniProt P35354); assay: Inhibition of COX-2; format: biochemical
T1 construct: purchased BioVision Incorporated K547-100 and K548-100 (for COX-1/2)
T1 sequence (P35354 18-604): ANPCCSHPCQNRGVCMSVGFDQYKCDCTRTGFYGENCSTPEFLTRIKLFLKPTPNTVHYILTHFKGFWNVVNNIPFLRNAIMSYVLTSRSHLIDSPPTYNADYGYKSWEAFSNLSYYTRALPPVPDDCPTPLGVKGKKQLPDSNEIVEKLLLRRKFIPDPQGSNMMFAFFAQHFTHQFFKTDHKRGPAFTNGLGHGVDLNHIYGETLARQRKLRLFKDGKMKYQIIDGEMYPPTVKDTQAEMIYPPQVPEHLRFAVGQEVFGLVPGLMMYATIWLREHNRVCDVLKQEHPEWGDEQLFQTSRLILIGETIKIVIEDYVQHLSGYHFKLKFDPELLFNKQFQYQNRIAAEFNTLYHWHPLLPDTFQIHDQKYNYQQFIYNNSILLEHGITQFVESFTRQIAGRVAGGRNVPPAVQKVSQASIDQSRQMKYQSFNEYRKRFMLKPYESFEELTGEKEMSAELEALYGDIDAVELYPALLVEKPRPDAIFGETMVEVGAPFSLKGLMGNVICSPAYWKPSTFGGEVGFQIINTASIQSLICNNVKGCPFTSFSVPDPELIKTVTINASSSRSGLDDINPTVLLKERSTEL
Description: as §1

COX-1, sequence (P05979 whole entry): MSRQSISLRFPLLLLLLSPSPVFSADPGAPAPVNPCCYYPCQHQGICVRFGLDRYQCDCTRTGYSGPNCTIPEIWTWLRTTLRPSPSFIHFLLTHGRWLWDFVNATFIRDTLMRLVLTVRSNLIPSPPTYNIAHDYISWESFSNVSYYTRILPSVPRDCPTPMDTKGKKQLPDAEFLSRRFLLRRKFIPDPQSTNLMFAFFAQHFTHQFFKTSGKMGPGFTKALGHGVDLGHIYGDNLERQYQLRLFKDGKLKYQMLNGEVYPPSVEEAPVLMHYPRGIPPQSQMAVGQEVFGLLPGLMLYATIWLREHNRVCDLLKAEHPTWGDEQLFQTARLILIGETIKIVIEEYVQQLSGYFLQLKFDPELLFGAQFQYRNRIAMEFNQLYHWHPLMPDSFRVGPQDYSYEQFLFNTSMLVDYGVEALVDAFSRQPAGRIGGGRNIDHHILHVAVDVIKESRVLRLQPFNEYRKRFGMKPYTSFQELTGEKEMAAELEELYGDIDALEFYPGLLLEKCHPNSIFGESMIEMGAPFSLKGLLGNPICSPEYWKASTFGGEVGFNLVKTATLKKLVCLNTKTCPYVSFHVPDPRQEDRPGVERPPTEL

Structure (SMILES): CC(C)Cc1ccc(C(C)C(=O)OCc2cn(-c3ccccc3Cl)nn2)cc1 (centres unmarked) [Compound 5a, (1-(2-Chlorophenyl)-1H-1,2,3-triazol-4-yl)methyl 2-(4-isobutylphenyl)propanoate]
- 1/(observed property) [1]: 0.01201
- Observed property [1]: 83.3
- % Inhibition/protection [1]: 83.3%
- ulcers or erosions to the gastric / ulcerogenic liability (in words) (gastric mucosa): none and No ulcerogenic liability
- % Incidence of ulcer divided by 10 (gastric mucosa): 0
- Average of ulcer number (gastric mucosa): 0
- Average severity of ulcer (gastric mucosa): 0
- Number of animals with ulcer (gastric mucosa): 0
- Ulcer index (gastric mucosa): 0
- Observed property (hot plate latency): 54.5
- IC50 (COX-1): 17.2 ± 0.41 µM

Structure (SMILES): CC(C)Cc1ccc(C(C)C(=O)OCc2cn(-c3ccc(Cl)cc3)nn2)cc1 (centres unmarked) [Compound 5b, (1-(4-Chlorophenyl)-1H-1,2,3-triazol-4-yl)methyl 2-(4-isobutylphenyl)propanoate]
- 1/(observed property) [1]: 0.01143
- Observed property [1]: 87.5
- % Inhibition/protection [1]: 87.5%
- ulcers or erosions to the gastric / ulcerogenic liability (in words) (gastric mucosa): none and No ulcerogenic liability
- % Incidence of ulcer divided by 10 (gastric mucosa): 0
- Average of ulcer number (gastric mucosa): 0
- Average severity of ulcer (gastric mucosa): 0
- Number of animals with ulcer (gastric mucosa): 0
- Ulcer index (gastric mucosa): 0
- Observed property (hot plate latency): 27.1
- IC50 (COX-1): 119 ± 3.4 µM

Structure (SMILES): CC(C)Cc1ccc(C(C)C(=O)OCc2cn(-c3ccc(F)cc3)nn2)cc1 (centres unmarked) [Compound 5c, (1-(4-Fluorophenyl)-1H-1,2,3-triazol-4-yl)methyl 2-(4-isobutylphenyl)propanoate]
- 1/(observed property) [1]: 0.01201
- Observed property [1]: 83.3
- Observed property (hot plate latency): 18
- % protection compared with parent compound ibuprofen (hot plate latency; at 30 min): 1.8 folds

Structure (SMILES): Cc1ccc(-n2cc(COC(=O)C(C)c3ccc(CC(C)C)cc3)nn2)cc1 (centres unmarked) [Compound 5d, (1-(p-Tolyl)-1H-1,2,3-triazol-4-yl)methyl 2-(4-isobutylphenyl)propanoate]
- 1/(observed property) [1]: 0.01212
- Observed property [1]: 82.5
- SI (COX-2; SI=IC50 (COX-1)/IC50 (COX-2)): 2.158
- IC50 (COX-2; ± SD): 4.47 ± 0.13 µM
- ulcers or erosions to the gastric / ulcerogenic liability (in words) (gastric mucosa): none and No ulcerogenic liability
- % Incidence of ulcer divided by 10 (gastric mucosa): 0
- Average of ulcer number (gastric mucosa): 0
- Average severity of ulcer (gastric mucosa): 0
- Number of animals with ulcer (gastric mucosa): 0
- Ulcer index (gastric mucosa): 0
- Observed property (hot plate latency): 1.2
- IC50 (COX-1): 9.64 ± 0.27 µM

Structure (SMILES): COc1ccc(-n2cc(COC(=O)C(C)c3ccc(CC(C)C)cc3)nn2)cc1 (centres unmarked) [Compound 5f, (1-(4-Methoxyphenyl)-1H-1,2,3-triazol-4-yl)methyl 2-(4-isobutylphenyl)propanoate]
- 1/(observed property) [1]: 0.0125
- Observed property [1]: 80.0
- Observed property (hot plate latency): 0.2

Structure (SMILES): CC(C)Cc1ccc(C(C)C(=O)OCc2cn(-c3ccc([N+](=O)[O-])cc3)nn2)cc1 (centres unmarked) [Compound 5g, (1-(4-Nitrophenyl)-1H-1,2,3-triazol-4-yl)methyl 2-(4-isobutylphenyl)propanoate]
- 1/(observed property) [1]: 0.01538
- Observed property [1]: 65.0
- Observed property (hot plate latency): 28.1

Structure (SMILES): C#CCOC(=O)Cc1c(C)n(C(=O)c2ccc(Cl)cc2)c2ccc(OC)cc12 [Compound 7, prop-2-yn-1-yl 2-(1-(4-chlorobenzoyl)-5-methoxy-2-methyl-1H-indol-3-yl) acetate]
- Potency [1]: 124.4%
- Writing reflex ± SE [1]: 4.3 ± 0.5
- % Inhibition/protection [1]: 89.3%
- Latency period ± SE (hot plate latency; After 30 min.): 6.68 s
- % Protection (hot plate latency; After 30 min.): 2.0* (0.0) %
- Latency period ± SE (hot plate latency; After 60 min.): 9.54 ± 1.6 s
- % Protection (hot plate latency; After 60 min.): (31.2) %
- Latency period ± SE (hot plate latency; After 90 min.): 11.18 ± 1.5 s
- % Protection (hot plate latency; After 90 min.): (25.5) %
- Latency period ± SE (hot plate latency; After 120 min.): 10.78 ± 1.8 s
- % Protection (hot plate latency; After 120 min.): (19.6) %
- Potency (hot plate latency): 34.7%

Structure (SMILES): COc1ccc2c(c1)c(CC(=O)OCc1cn(-c3ccccc3Cl)nn1)c(C)n2C(=O)c1ccc(Cl)cc1 [Compound 8a, (1-(2-Chlorophenyl)-1H-1,2,3-triazol-4-yl)methyl 2-(1-(4-chlorobenzoyl)-5-methoxy-2-methyl-H-indol-3-yl)acetate]
- 1/(observed property) [1]: 0.02028
- Potency [1]: 68.7%
- Observed property [1]: 49.3
- Writing reflex ± SE [1]: 20.3 ± 1.8
- % Inhibition/protection [1]: 49.3%
- Observed property (hot plate latency): 51.3
- Latency period ± SE (hot plate latency; After 30 min.): 12.19 s
- % Protection (hot plate latency; After 30 min.): (82.5) %
- Latency period ± SE (hot plate latency; After 60 min.): 13.51 s
- % Protection (hot plate latency; After 60 min.): 1.7** (85.8) %
- Latency period ± SE (hot plate latency; After 90 min.): 13.85 ± 1.4 s
- % Protection (hot plate latency; After 90 min.): (55.4) %
- Latency period ± SE (hot plate latency; After 120 min.): 13.63 ± 1.3 s
- % Protection (hot plate latency; After 120 min.): (51.3) %
- Potency (hot plate latency): 90.8%

Structure (SMILES): COc1ccc2c(c1)c(CC(=O)OCc1cn(-c3ccc(Cl)cc3)nn1)c(C)n2C(=O)c1ccc(Cl)cc1 [Compound 8b, (1-(4-Chlorophenyl)-1H-1,2,3-triazol-4-yl)methyl 2-(1-(4-chlorobenzoyl)-5-methoxy-2-methyl-1H-indol-3-yl)acetate]
- 1/(observed property) [1]: 0.0216
- Observed property [1]: 46.3
- Observed property (hot plate latency): 9.7

Structure (SMILES): COc1ccc2c(c1)c(CC(=O)OCc1cn(-c3ccc(F)cc3)nn1)c(C)n2C(=O)c1ccc(Cl)cc1 [Compound 8c, (1-(4-Fluorophenyl)-1H-1,2,3-triazol-4-yl)methyl 2-(1-(4-chlorobenzoyl)-5-methoxy-2-methyl-1H-indol-3-yl)acetate]
- 1/(observed property) [1]: 0.02421
- Observed property [1]: 41.3
- Observed property (hot plate latency): 48.1

Structure (SMILES): COc1ccc2c(c1)c(CC(=O)OCc1cn(-c3ccc(C)cc3)nn1)c(C)n2C(=O)c1ccc(Cl)cc1 [Compound 8d, (1-(p-Tolyl)-1H-1,2,3-triazol-4-yl)methyl 2-(1-(4-chlorobenzoyl)-5-methoxy-2-methyl-1H-indol-3-yl)acetate]
- 1/(observed property) [1]: 0.016
- Observed property [1]: 62.5
- Observed property (hot plate latency): 48.6

Structure (SMILES): COc1ccc2c(c1)c(CC(=O)OCc1cn(-c3ccccc3OC)nn1)c(C)n2C(=O)c1ccc(Cl)cc1 [Compound 8e, (1-(2-Methoxyphenyl)-1H-1,2,3-triazol-4-yl)methyl 2-(1-(4-chlorobenzoyl)-5-methoxy-2-methyl-1H-indol-3-yl)acetate]
- 1/(observed property) [1]: 0.01238
- Observed property [1]: 80.8
- Observed property (hot plate latency): 28.9

Structure (SMILES): COc1ccc(-n2cc(COC(=O)Cc3c(C)n(C(=O)c4ccc(Cl)cc4)c4ccc(OC)cc34)nn2)cc1 [Compound 8f, (1-(4-Methoxyphenyl)-1H-1,2,3-triazol-4-yl)methyl 2-(1-(4-chlorobenzoyl)-5-methoxy-2-methyl-1H-indol-3-yl)acetate]
- 1/(observed property) [1]: 0.01497
- Observed property [1]: 66.8
- Observed property (hot plate latency): 66.5

Structure (SMILES): COc1ccc2c(c1)c(CC(=O)OCc1cn(-c3ccc([N+](=O)[O-])cc3)nn1)c(C)n2C(=O)c1ccc(Cl)cc1 [Compound 8g, (1-(4-Nitrophenyl)-1H-1,2,3-triazol-4-yl)methyl 2-(1-(4-chlorobenzoyl)-5-methoxy-2-methyl-1H-indol-3-yl)acetate]
- 1/(observed property) [1]: 0.01038
- Observed property [1]: 96.3
- Observed property (hot plate latency): 2.7

Structure (SMILES): CC(C)Cc1ccc(C(C)C(=O)O)cc1 (centres unmarked) [Ibu, 2-(4-isobutylphenyl)propanoic acid, reference compound]
- Potency [1]: 81.5%
- % Inhibition/protection [1]: 58.5%
- % Incidence of ulcer divided by 10 (gastric mucosa): 3.33
- Average of ulcer number (gastric mucosa): 0.33
- Average severity of ulcer (gastric mucosa): 0.67
- Number of animals with ulcer (gastric mucosa): 2/6
- % Protection (hot plate latency; After 30 min.): (61.7) %
- % Protection (hot plate latency; After 120 min.): (54.3) %
- Potency (hot plate latency): 96.1%
